# According to PMC10747822 (Pharmaceutics, 2023):
# Where a SMILES comes first, the peptide text is derived from it. [ ]: non-standard residue; d: D form. The star is where a group is joined. NH(4-amidinobenzyl) = N=C(N)c1ccc(CN*)cc1
# What was measured:
# [1] = Freeze-and-thaw stability in whole blood QC samples; format: in vitro ADME, human; conditions: for freeze-and-thaw stability, Accuracy [%]: one cycle
# Procedure: Blood samples for calibration and QC purposes were generated through the addition of 25 µL of the pertinent spike solution to 20 µL of blank blood and the subsequent addition of 25 µL of IS solution. Calibration samples were produced at 10, 30, 100, 300, 1000, 3000, and 10,000 ng/mL, and QC samples were produced at concentrations of 10, 30, 3750, and 7500 ng/mL. For study sample processing, 20 µL of each sample was added to 25 µL of IS solution, and 25 µL of ACN/H2O 1/1 + 0.1% FA was added for volume compensation to ensure that sample preparation matches that of study blood samples. For stability reasons, each sample was immediately depleted from proteins by adding 150 µL ACN including 0.1% FA. Samples were processed individually and kept frozen until processing. Subsequently, samples were centrifuged at 13,200× g for 5 min. From the extracts, 10 µL was transferred to 400 µL of ACN/H2O 1/19 + 0.1% FA in wells of a 96-well collection plate (Waters, Milford, MA, USA).
# The applicable recommendations for bioanalytical method validation of the FDA and EMA were applied to the validation of the assay. Accuracy was calculated as the percentage of the ratio of the mean of the determined concentrations and the nominal concentration. The acceptance limit is 100 ± 15%, with the exception of the LLOQ where it is 100 ± 20% Q. The assay precision was calculated as the coefficient of variation of the determined sample concentrations. It needs to be ≤15% in general and ≤20% at the LLOQ. Each validation run included blank and IS controls, seven calibration samples in duplicate determination, and four QC samples (LLOQ and low, mid, and high QC concentrations) in six-fold determination. Recovery of the whole blood extraction process was calculated from peak areas of QC samples divided by the peak areas obtained from blank blood spiked with the respective amount after processing. Assessment of matrix effects was performed by the ratio of peak areas of blank blood samples spiked after processing with the peak areas of UPLC solvent containing an identical amount of analyte. Stability of the analyte was investigated in freeze-and-thaw cycles separated by at least 24 h and at room temperature for testing bench-top stability.
# Because an isotopically labeled analog of Ac-[D-Leu]LLLRVK-amba was used as IS, potential variations in (negligible) matrix effects can be efficiently balanced by the IS due to its identical physicochemical characteristics. As a consequence, whole blood from other species is appropriate for calibration and QC preparation. Therefore, whole blood from human donors was used for these purposes, which also helps to reduce animal sacrifice.
# [2] = mice; cited from earlier work
# Procedure: The pharmacokinetics of Ac-[D-Leu]LLLRVK-amba was already determined after intravenous bolus injection. With a half-life of only 9 min, this route of administration only produced a short period of potentially effective concentrations. […] Therefore, we aimed at flattening the pharmacokinetic profile with alternate routes of administr ...
# PACE4 = conditions: cited from earlier work
# From the text: PACE4 is a calcium-dependent serine endoprotease, which has been identified as a potential therapeutic target in prostate cancer. Recently, an efficient inhibitory peptide for PACE4 has been reported, Ac-[D-Leu]LLLRVK-amba, which inhibits PACE4 with low nanomolar affinity. Such high affinity was achieved by optimizing the previously discovered multi-Leu peptide by inserting a […] acetylated D-leucine and replacing the […] arginine with a decarboxylated variant, a 4-amidinobenzylamide (amba) moiety.
smiles,measurement,setting,value
CC(=O)N[C@H](CC(C)C)C(=O)N[C@@H](CC(C)C)C(=O)N[C@@H](CC(C)C)C(=O)N[C@@H](CC(C)C)C(=O)N[C@@H](CCCNC(=N)N)C(=O)N[C@H](C(=O)N[C@@H](CCCCN)C(=O)NCc1ccc(C(=N)N)cc1)C(C)C [Ac-[D-Leu]LLLRVK-amba] (Ac-[dL]LLLRVK-{NH(4-amidinobenzyl)}),"freeze-and-thaw stability, accuracy","[1]; whole blood QC samples, one freeze-and-thaw cycle, range over QC levels, corresponding precision ≤14.0%, UPLC-MS/MS",91.5 to 98.3%
same,deviation after further freeze-and-thaw cycles,"[1]; whole blood, more than one freeze-and-thaw cycle, cycles separated by at least 24 h",> 15%
same,"freeze-and-thaw stability, Accuracy [%]","[1]; whole blood, QC A, UPLC-MS/MS",91.5%
same,"freeze-and-thaw stability, Accuracy [%]","[1]; whole blood, QC B, UPLC-MS/MS",91.6%
same,"freeze-and-thaw stability, Accuracy [%]","[1]; whole blood, QC C, UPLC-MS/MS",98.3%
same,half-life after intravenous bolus injection (previous study),[2],9 min
same,affinity of PACE4 inhibition,PACE4,low nanomolar
